# Biological target: T1, Human Cav3.1 calcium channel (Homo sapiens, UniProt O43497)
# T1 construct: expressed in transfected cells; host or cells: HEK-293 natClytin/TASK1+Cav3.1 cell line
# Assay: Human Cav3.1 calcium channel patch clamp assay (SyncroPatch 384PE; single point and IC50, voltage dependent block)
# Format: cell-based
# Conditions: Testing Conc 1.25; HEK-293 natClytin/TASK1+Cav3.1 cell line, patch clamp
# Procedure, shortened: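 Automated whole-cell patch clamp at room temperature, cells held at −120 mV; 100 ms step to −20 mV (resting block), then 1600 ms at −65 mV and a second −20 mV step (voltage-dependent block), every 15 s. Peak currents averaged over last 3 sweeps; % inhibition relative to nickel-sensitive current.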
# T1 sequence (O43497 whole entry): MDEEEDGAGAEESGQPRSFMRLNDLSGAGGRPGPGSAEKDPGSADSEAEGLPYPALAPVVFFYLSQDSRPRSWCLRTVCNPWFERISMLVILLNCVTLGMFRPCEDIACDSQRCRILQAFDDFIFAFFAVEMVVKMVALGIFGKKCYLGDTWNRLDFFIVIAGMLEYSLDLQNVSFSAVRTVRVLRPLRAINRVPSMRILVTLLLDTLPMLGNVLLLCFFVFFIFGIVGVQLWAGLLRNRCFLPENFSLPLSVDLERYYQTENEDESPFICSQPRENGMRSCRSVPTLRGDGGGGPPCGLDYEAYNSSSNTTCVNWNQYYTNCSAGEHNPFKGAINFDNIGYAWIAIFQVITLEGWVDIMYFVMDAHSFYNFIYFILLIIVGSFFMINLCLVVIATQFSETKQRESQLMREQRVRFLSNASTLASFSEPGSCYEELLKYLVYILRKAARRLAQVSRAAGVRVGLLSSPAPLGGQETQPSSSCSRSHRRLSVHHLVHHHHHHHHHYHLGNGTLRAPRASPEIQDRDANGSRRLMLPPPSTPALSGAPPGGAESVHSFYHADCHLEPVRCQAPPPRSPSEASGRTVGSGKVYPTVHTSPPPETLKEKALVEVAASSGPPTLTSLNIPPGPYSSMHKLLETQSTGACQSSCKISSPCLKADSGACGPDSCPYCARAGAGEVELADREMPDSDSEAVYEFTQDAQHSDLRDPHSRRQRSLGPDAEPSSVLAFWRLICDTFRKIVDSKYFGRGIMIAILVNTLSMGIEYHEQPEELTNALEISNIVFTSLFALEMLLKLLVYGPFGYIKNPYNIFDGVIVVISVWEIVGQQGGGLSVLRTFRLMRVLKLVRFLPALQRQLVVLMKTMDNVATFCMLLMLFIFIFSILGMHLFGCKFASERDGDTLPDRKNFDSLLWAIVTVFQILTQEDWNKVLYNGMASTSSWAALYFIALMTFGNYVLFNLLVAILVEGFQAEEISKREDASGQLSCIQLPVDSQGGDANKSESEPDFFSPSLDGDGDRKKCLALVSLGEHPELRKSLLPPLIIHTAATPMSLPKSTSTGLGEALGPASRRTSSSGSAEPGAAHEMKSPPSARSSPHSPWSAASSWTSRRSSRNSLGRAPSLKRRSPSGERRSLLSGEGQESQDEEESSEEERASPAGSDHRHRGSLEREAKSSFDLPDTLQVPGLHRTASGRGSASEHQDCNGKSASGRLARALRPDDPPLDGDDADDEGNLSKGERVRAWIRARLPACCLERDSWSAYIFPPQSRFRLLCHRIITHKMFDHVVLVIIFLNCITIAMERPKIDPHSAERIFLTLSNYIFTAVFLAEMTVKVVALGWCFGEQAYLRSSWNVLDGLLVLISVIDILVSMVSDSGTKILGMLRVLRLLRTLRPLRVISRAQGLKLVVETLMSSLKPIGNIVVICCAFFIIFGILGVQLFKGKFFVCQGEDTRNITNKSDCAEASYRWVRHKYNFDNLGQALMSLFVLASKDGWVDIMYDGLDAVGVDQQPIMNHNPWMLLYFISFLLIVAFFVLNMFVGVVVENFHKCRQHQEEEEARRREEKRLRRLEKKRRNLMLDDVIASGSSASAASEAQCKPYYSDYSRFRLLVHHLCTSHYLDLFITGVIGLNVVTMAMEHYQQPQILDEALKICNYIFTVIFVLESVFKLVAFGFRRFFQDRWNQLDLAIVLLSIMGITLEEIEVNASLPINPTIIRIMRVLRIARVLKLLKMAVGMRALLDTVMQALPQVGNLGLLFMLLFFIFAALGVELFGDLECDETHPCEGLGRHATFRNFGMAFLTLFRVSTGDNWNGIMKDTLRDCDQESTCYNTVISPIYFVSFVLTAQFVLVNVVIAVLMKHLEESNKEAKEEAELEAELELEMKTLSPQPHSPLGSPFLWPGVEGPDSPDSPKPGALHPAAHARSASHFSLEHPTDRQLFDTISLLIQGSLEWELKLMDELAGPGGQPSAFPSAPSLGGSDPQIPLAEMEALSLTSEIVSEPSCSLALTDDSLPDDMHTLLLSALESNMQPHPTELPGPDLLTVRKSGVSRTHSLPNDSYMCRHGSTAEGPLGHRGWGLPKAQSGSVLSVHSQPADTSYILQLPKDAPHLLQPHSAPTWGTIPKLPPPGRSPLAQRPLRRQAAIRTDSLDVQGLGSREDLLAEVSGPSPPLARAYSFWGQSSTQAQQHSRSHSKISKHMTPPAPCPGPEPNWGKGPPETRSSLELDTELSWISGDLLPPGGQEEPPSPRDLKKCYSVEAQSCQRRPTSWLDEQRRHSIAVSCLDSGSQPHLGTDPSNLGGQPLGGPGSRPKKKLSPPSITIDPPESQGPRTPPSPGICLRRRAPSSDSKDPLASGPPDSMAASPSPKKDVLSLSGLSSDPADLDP
row,Compound,% Inhibition (Single Point Data)
1,Cc1cc(F)cc2[nH]c(CN3CC4CC(C3)N4CCC3CCOCC3)nc12 [Compound 205],16.681%
2,CC(C)(C)NC(=O)CN1C2CCC1CN(Cc1ncc3ccccc3n1)C2 [Compound 186],5.7091%
3,Cn1nc(C(C)(C)C)cc1NC(=O)CN1CC2CCC(C1)N2CC(=O)NC(C)(C)C [Compound 6],10.343%
4,CC(C)(NC(=O)CN1CC2CC1CN2CC(=O)Nc1ccc(F)c(Cl)c1)C(F)(F)F (stereo not drawn) [Compound 235],92.093%
5,CC(C)(C)NC(=O)CN1CC2CC1CN2CC(=O)Nc1cc(Cl)ccc1F (stereo not drawn) [Compound 48],28.07%
6,CC(C)(C)NC(=O)CN1C[C@@H]2C[C@H]1CN2CCNc1nccc2ccc(Cl)cc12 [Compound 60],60.189%
7,N#CC1(CN2C3CC2CN(CC(=O)Nc2cc(F)cc(Cl)c2)C3)CCC(F)(F)CC1 [Compound 52],51.764%
8,CC(C)(C)NC(=O)CN1C[C@@H]2C[C@H]1CN2CC(=O)NCC12CC3CC(CC(C3)C1)C2 [Compound 285],45.897%
9,O=C(CN1C[C@@H]2C[C@H]1CN2CCC1CCOCC1)NC12CC3CC(CC(C3)C1)C2 [Compound 291],18.238%
10,O=C(CN1CC2CC(C1)N2CC(=O)NC1(C(F)(F)F)CC1)Nc1ccc(F)c(C(F)(F)F)c1 [Compound 251],80.59%
11,CC(C)(CO)NC(=O)CN1C2CCC1CN(Cc1nc3c(Cl)cc(F)cc3[nH]1)C2 [Compound 79],100%
12,O=C(CN1CC2CC1CN2CCNC(=O)C1(C(F)(F)F)CCC1)Nc1cc(F)cc(Cl)c1 (stereo not drawn) [Compound 228],87.61%
13,CC1(OC(=O)CN2C3CC2CN(Cc2nc4c(Cl)cc(F)cc4[nH]2)C3)CC1 [Compound 140],79.539%
14,CC(C)(C)NC(=O)CN1C2CCC1CN(Cc1nc3c(Cl)cc(C#N)cc3[nH]1)C2 [Compound 191],97.531%
15,O=C(CN1CC2CC1CN2CCNC(=O)C1(C(F)(F)F)CC1)Nc1cc(F)cc(Cl)c1 (stereo not drawn) [Compound 227],78.995%
16,CC1(C)CC(CN2C[C@@H]3C[C@H]2CN3CC(=O)NC23CC4CC(CC(C4)C2)C3)CCO1 (stereo partly drawn) [Compound 298],26.791%
17,OC1(CCN2C3CC2CN(Cc2nc4c(Cl)cc(F)cc4[nH]2)C3)CCCC1 [Compound 108],79.783%
18,O=C(CN1C[C@@H]2C[C@H]1CN2CC(=O)NC1(C(F)(F)F)COC1)NC12CC3CC(CC(C3)C1)C2 [Compound 319],23.628%
19,CC(C)(C)NC(=O)CN1C[C@@H]2C[C@H]1CN2CC(=O)NC12CCC(CC1)C2 [Compound 288],23.299%
20,Cc1cc(CNC(=O)CN2CC3CC(C2)N3CC(=O)NC(C)(C)C)nn1-c1ccccc1 [Compound 273],6.1482%
21,Cc1ccc(Cl)c2nc(CN3CC4CC(C3)N4CC(=O)NC(C)(C)C)[nH]c12 [Compound 217],100.76%
22,O=C(CN1CC2CC(C1)N2CCNC(=O)C1(C(F)(F)F)CC1)Nc1cc(F)cc(Cl)c1 [Compound 232],98.914%
23,CC(C)(C)NC(=O)CN1C2CC1CN(CC(=O)NC13CC4CC(CC(Cl)(C4)C1)C3)C2 [Compound 345],42.634%
24,CC(C)(C)NC(=O)CN1C2CC1CN(CC(=O)NC1CCCCC1)C2 [Compound 309],22.713%
25,Cc1ccc2ccnc(NCC3CCN(CC(=O)NC(C)(C)C)CC3)c2n1 [Compound 102],25.803%
26,COc1cc(Cl)cc(NC(=O)CN2CC3CC(C2)N3CC(=O)NC(C)(C)C)c1 [Compound 284],103.09%
27,COc1cccc(NC(=O)CN2CC3CC(C2)N3CC(=O)NC(C)(C)C)c1 [Compound 208],51.139%

# Same assay, conditions: voltage dependent block (VDB); HEK-293 natClytin/TASK1+Cav3.1 cell line; read-out: Cav3.1 IC50
row,IC50,Compound
1,371 nM,Cc1ccc(NC(=O)CN2C[C@@H]3C[C@H]2CN3CC(=O)NC(C)(C)C)cc1Cl [Compound 362]
2,< 78.2 nM,O=C(CN1C[C@@H]2C[C@H]1CN2CC(=O)NC1(C(F)(F)F)CC1)Nc1cc(F)c(F)c(Cl)c1 [Compound 347]
3,226 nM,CC(C)(NC(=O)CN1CC2CC1CN2CC(=O)Nc1ccc(F)c(Cl)c1)C(F)(F)F (stereo not drawn) [Compound 235]
4,1340 nM,CC(C)(C)NC(=O)CN1CC2CC1CN2CC(=O)Nc1cc(Cl)ccc1F (stereo not drawn) [Compound 48]
5,605 nM,CC(C)(C)NC(=O)CN1C[C@@H]2C[C@H]1CN2CCNc1nccc2ccc(Cl)cc12 [Compound 60]
6,1270 nM,CC(C)(C)NC(=O)CN1C[C@@H]2C[C@H]1CN2CC(=O)NCC12CC3CC(CC(C3)C1)C2 [Compound 285]
7,3330 nM,O=C(CN1C[C@@H]2C[C@H]1CN2CCC1CCOCC1)NC12CC3CC(CC(C3)C1)C2 [Compound 291]
8,242 nM,O=C(CN1CC2CC1CN2CCNC(=O)C1(C(F)(F)F)CCC1)Nc1cc(F)cc(Cl)c1 (stereo not drawn) [Compound 228]
9,157 nM,O=C(CN1CC2CC1CN2CCNC(=O)C1(C(F)(F)F)CC1)Nc1cc(F)cc(Cl)c1 (stereo not drawn) [Compound 227]
10,2080 nM,CC1(C)CC(CN2C[C@@H]3C[C@H]2CN3CC(=O)NC23CC4CC(CC(C4)C2)C3)CCO1 (stereo partly drawn) [Compound 298]
11,2080 nM,O=C(CN1C[C@@H]2C[C@H]1CN2CC(=O)NC1(C(F)(F)F)COC1)NC12CC3CC(CC(C3)C1)C2 [Compound 319]
12,1710 nM,CC(C)(C)NC(=O)CN1C[C@@H]2C[C@H]1CN2CC(=O)NC12CCC(CC1)C2 [Compound 288]
13,4430 nM,Cc1ccc2ccnc(NCC3CCN(CC(=O)NC(C)(C)C)CC3)c2n1 [Compound 102]

row,Compound,IC50
1,CC(C)(C)NC(=O)CN1C2CC1CN(C(=O)c1nc3c(Cl)cc(F)cc3[nH]1)C2 [Compound 210],1910 nM
2,Cc1cc(F)cc2[nH]c(CN3CC4CC(C3)N4CCC3CCOCC3)nc12 [Compound 205],4680 nM
3,N#CC1(CN2C3CC2CN(CC(=O)Nc2cc(F)cc(Cl)c2)C3)CCC(F)(F)CC1 [Compound 52],853 nM
4,CC1(OC(=O)CN2C3CC2CN(Cc2nc4c(Cl)cc(F)cc4[nH]2)C3)CC1 [Compound 140],283 nM
5,OC1(CCN2C3CC2CN(Cc2nc4c(Cl)cc(F)cc4[nH]2)C3)CCCC1 [Compound 108],338 nM
6,O=C(CN1CC2CC(C1)N2CCNC(=O)C1(C(F)(F)F)CC1)Nc1cc(F)cc(Cl)c1 [Compound 232],138 nM
7,CC(C)(C)NC(=O)CN1C2CC1CN(CC(=O)NC13CC4CC(CC(Cl)(C4)C1)C3)C2 [Compound 345],1190 nM
8,COc1cccc(NC(=O)CN2CC3CC(C2)N3CC(=O)NC(C)(C)C)c1 [Compound 208],1010 nM

# Reference: US20250213558A1, “T-TYPE CALCIUM CHANNEL MODULATORS COMPRISING A PIPERAZINE OR 1,4-DIAZEPANE CORE AND METHODS OF USE THEREOF” (Praxis Precision Medicines, Inc., priority 2022, published 2025)
